“Also recorded” adds a separate entry of the source. Where two headings read alike, the source gives them in different places.
Key:
[1] = target: T1, CRABP (Rattus norvegicus, UniProt P62966); assay: Competition with the claimed marked compound for CRABP; type: binding
T1 construct: rat testicle cytosol containing CRABP; from tissue
Method: These competition experiments are carried out in the following manner: a fixed quantity of radioactive ligand (corresponding substantially to the demi-saturation, in our case 4 nM) is mixed with increasing quantities of cold ligand (non-radioactive). Then the binding protein is added and the quantity of radioactive ligand fixed to the balance is determined (in % of the initial fixing in the absence of cold ligand, for the quantity of CRABP under consideration).
From the competition curves, the IC50 (concentration of cold ligand reducing the attachment of the tritiated ligand by 50%) is determined. This IC50 value enables the calculation in each case of the dissociation constant from the balance (Kd) for the cold ligand.

[2] = system: retinoic acid nuclear receptors (RARs); assay: Competition with the tritiated compound of example 1 for RARs in F9 cells (HPSEC of nucleosol); type: binding, murine; settings: for IC50: competition with 2 nM tritiated compound of example 1, incubation of 3 hours, read-out: AFFINITY RARs:IC50
Method: (§1) Cultures of F9 cells of murin embryonic carcinoma (normally four 90 mm dishes containing in total 2-4×10^7 cells per incubation condition) were washed once with PBS (saline phosphate buffer) and incubated for 3 hours in a medium, without serum, supplemented with the marked retinoid in the absence or the presence of a cold retinoid homolog or heterolog (to verify the specificity and for comparison experiments). The cells were then detached with a trypsin EDTA mixture and numbered with a Burker hemocytometer. The nucleosol containing RARs was extracted from the purified nuclei using the method described by Daly and Redfern (1987) (that is, after treatment using DNAase and NaCl 0.6M), and analyzed using high performance exclusion chromatography (HPSEC). 50 μl of marked extract were injected on a 9×250 mm GF250 column (Dupont de Nemours). The elution was carried out in a buffer 0.3M KH2 PO4 pH 7.8 at a rate of 1 ml/min. The protein content was followed by measuring the optical density at 280 nm. 28 fractions of 0.3 ml each were collected and counted in Picofluor (Packard) scintillating agent. For each retinoid concentration, the number of bonded molecules was determined using the surface of the radioactivity peak and the calculated concentration of demi-saturation (C50). […] The dose-response curves and the competition curves were analyzed on a computer through non-linear regression using the various forms of the Clark equation.
In view of its stability and its excellent affinity for the RARs, the compound of example 1 in principle enables the determination by competition of the affinity of no matter which retinoid for the RARs.
The […] profiles are obtained after incubation of the F9 cells with 2×10^-9 M of the compound of example 1 in the absence (- ) or in the presence of 10^-9 M(.quadrature.-.quadrature.), 10^-8 M (- ), 10^-7 M (Δ-Δ), 10^-6 M (- ) of cold competitors. I=the unmarked compound of example 1. RA=retinoic acid. For each competition concentration, the peak surface is expressed as a percentage of the surface obtained with the compound of example 1 without competition.
By measuring the surface of the radioactive peak for each concentration of cold competition, it is possible to trace the competition sigmoids. Data processing of these curves enables the determination of the IC50 (50% inhibiting concentration) of each retinoid.

[3] = system: retinoic acid nuclear receptors (RARs); assay: Direct fixing of tritiated ligand on RARs of F9 cells (HPSEC of nucleosol); type: binding, murine; settings: 200 nM tritiated ligand; for specific fixing on RARs in presence of excess cold homolog ligand: 100-fold excess (20000 nM) cold ligand, FIG. 1; for ligand fixed to the RARs per cell: FIG. 2
Method: as §1
When the above-describe method is used and the F9 cells are incubated with the compound of example 1 at a concentration of 200 nM, a single radioactivity peak is observed in the nuclear extract (FIG. 1B). The molecular weight corresponding to the average fraction of the peak is approximately 45 kDa, a number close to the molecular weight of human RARs, as has been calculated from the sequence of their DNAc (Petkovich et al, 1987; Brand et al, 1988), and is compatible with the 4S sedimentation coefficient of murin receptors (Daly & Redfer, 1987). The fixing is specific since it is abolished when the cells are coincubated with an excess of 100 times of the cold compound I (FIG. 1B). There is no CRABP in the nucleosoilc extract of F9, as already underlined by Daly and Redfern (1987).
It can be noted that the radioactive peak elutes at the same position as with the compound of example 1.
The two compounds were used at a concentration of 200 nM. The quantity of ligand bonded to the RARs is expressed in molecules per cell.
To determine the concentration of the compound of example 1 giving 50% saturation of the RARs (C50), a saturation curve has been traced expressing the surface of the radioactive peak as a function of varied concentrations of the compound of example 1. The C50 is between 0.5 and 2 nM.

[4] = system: F9 cells; assay: Production of secreted plasminogen activator by differentiating F9 cells (biological activity, CPA50); type: cell-based, murine; settings: for EC50: Mus musculus, read-out: BIOLOGICAL ACTIVITY CPA50
Source text: The biological activity of the retinoids can be measured on the F9 cells by quantifying the production of the plasminogen activator secreted consecutively with the differentiation of said cells, caused by the retinoids. CPA50 is the concentration of retinoids causing an induction of 50% of the maximum of the secreted plasminogen activator. By comparing the IC50 and CPA50 values on Table 1, it can be noted that there is an excellent correlation between the affinity of the retinoids for the RARs and their biological activity (see also the straight regression line of FIG. 4). The only exception is retinoic acid itself. […] In effect, the IC50 measurement is carried out after an incubation of 3 hours, while the CPA50 measurement is carried out after a incubation of 3 days.

[5] = target: T1, CRABP; assay: Direct fixing (saturation) of tritiated ligand on CRABP in rat testicle cytosol; type: binding; settings: for non-specific fixing as part of total fixing on CRABP: 1 μM cold homolog ligand; for concentration of CRABP in rat testicle cytosol found with the marked retinoid: saturating concentration of marked retinoid
Method: The difference (- ) represents the specific bond.
The total fixing (non-specific+specific (1-1) is obtained by incubation of increasing concentrations (up to a maximum of 125 nM) of the claimed compound with a constant quantity (0.3 ml) of a rat testicle homogenate (CRABP-rich organ). The non-specific fixing of the tritiated compound is determined in parallel, by measuring the fixing with increasing concentrations of the radioactive ligand in the presence of a large excess (1 μM) of cold homolog ligand (.quadrature.-.quadrature.). An incubation time of two hours is necessary for the establishment of balanced conditions.
Once the balance is achieved, the tritiated CRABP-ligand complex is separated from the non-bonded ligand by filtration on a Sephadex G25 exclusion gel column (BIO-Rad econo columns, 0.5× 20 cm): the complex is eluted (elution peak at 2.5 ml), while the non-bonded ligand is retained in totality on the column. […] The elution is done directly in scintillation tubes and the radioactivity is measured by counting.
The difference between the total fixing curve (- )and the non-specific fixing curve (.quadrature.-.quadrature.) gives the specific fixing curve ( - ). Analysis of this curve provides the dissociation constant with the balance (Kd), which is the concentration of product necessary to saturate 50% of the CRABP. This constant is a measurement of the affinity of the ligand for its binding protein, with the Kd being inversely proportional to the affinity (the lower the Kd, the greater the affinity).
The concentration of CRABP in the rat testicle cytosol used for the experiment can be determined in binding experiments where the marked retinoids are used at a saturating concentration.

[6] = Stability of ligand (general statements); type: physicochemical; settings: statement in words, no data
[7] = by radiolysis, oxidation and photolysis; background statement; cited from earlier work
[8] = Table 1, Kd calculated from competition IC50, radioligand about 4 nM, read-out: AFFINITY CRABP:Kd
[9] = 72 h, concentration causing induction of 50% of the maximum of secreted plasminogen activator, F9 cells, incubation of 3 days

T1 sequence (P62966 whole entry): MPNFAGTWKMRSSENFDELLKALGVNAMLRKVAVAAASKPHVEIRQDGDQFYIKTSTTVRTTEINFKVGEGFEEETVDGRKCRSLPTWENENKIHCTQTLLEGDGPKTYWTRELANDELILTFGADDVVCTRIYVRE

SMILES | Kd [1, 8] | IC50 ([2]; F9 cells) | EC50 [4, 9] | Kd [1] | EC50 ([4]; F9, 72 h) | other results
CC1(C)CCC(C)(C)c2cc3cc(-c4ccc(C(=O)O)cc4)ccc3cc21 [Compound I, 4-(5,6,7,8-tetrahydro-5,5,8,8-tetramethyl-2-anthracenyl) benzoic acid] | 4 nM | 0.8 nM | 1 nM | – | – | affinity for the RARs relative to retinoic acid ([2]; from IC50 of Table 1): six times; specific fixing on RARs in presence of excess cold homolog ligand [3]: abolished
Cc1c(C(=O)O)cc(S)c2cc(-c3ccc4c(c3)C(C)(C)CCC4(C)C)ccc12 [Compound VIII, 1methyl-4-thiol-6-(5,6,7,8-tetrahydro-5,5,8,8-tetramethyl-2-naphthyl)-2-nphthoic acid] | – | > 10000 nM | – | 200 nM | > 10000 nM | affinity for the RARs (in words) ([2]; F9 cells, FIG. 4): below the threshold of detection; biological activity (in words) ([4]; F9 cells, FIG. 4): biologically inactive; also recorded: below the threshold of detection
CC1(C)CCC(C)(C)c2cc(-c3ccc4cc(C(=O)O)ccc4c3)ccc21 [Compound V, 6(5,6,7,8-tetrahydro-5,5,8,8-tetramethyl-2-naphthyl)-2-naphthoic acid] | 20 nM | 12 nM | 66 nM | – | – | –
CC1(C)CCC(C)(C)c2cc3cc(-c4ccc(C(=O)O)cc4)ccc3cc21 [Example 1, 4-(5,6,7,8-tetrahydro-5,5,8,8-tetramethyl-2-anthracenyl) benzoic acid marked with tritium] | – | – | – | – | – | character of non-specific fixing on CRABP ([5]; in the range of concentrations used, rat testicle): linear and non-saturable; character of specific fixing on CRABP ([5]; rat testicle): saturable and reversible; non-specific fixing as part of total fixing on CRABP ([5]; rat testicle): less than 10%; concentration of CRABP in rat testicle cytosol found with the marked retinoid [5]: 10-12 pmol/mg protein; stability of the ligand [6]: very stable; ligand fixed to the RARs per cell [3]: approximately 4,000 molecules per cell
CC1(C)CCC(C)(C)c2cc(C(=O)Nc3ccc(C(=O)O)cc3)ccc21 [Compound VII, 4(5,6,7,8-tetrahydro-5,5,8,8-tetramethyl-2-naphthamido) benzoic acid] | 200 nM | 76 nM | 85 nM | – | – | –
CC1=C(/C=C/C(C)=C/C=C/C(C)=C/C(=O)O)C(C)(C)CCC1 [Retinoic acid] | – | 5 nM | – | – | 350 nM | degradation of retinoic acid [7]: rapidly degraded; non-specific fixing as part of total fixing on CRABP ([5]; rat testicle): approximately 25%; concentration of CRABP in rat testicle cytosol found with the marked retinoid [5]: 10-12 pmol/mg protein; stability of the ligand [6]: high instability; specific fixing on RARs in presence of excess cold homolog ligand [3]: the peak is not observed; ligand fixed to the RARs per cell [3]: approximately 4,000 molecules per cell
CC1=C(/C=C/C(C)=C/C=C/C(C)=C/CO)C(C)(C)CCC1 [Retinol] | 600 nM | 1400 nM | 2500 nM | – | – | –
CC1(C)CCC(C)(C)c2cc(-c3cc4ccc(C(=O)O)cc4s3)ccc21 [Compound IV, 2(5,6,7,8-tetrahydro-5,5,8,8-tetramethyl-2-naphthyl)-6-benzo(b)thiophene carboxylic acid] | – | 77 nM | – | 2 nM | 53 nM | –
CC1(C)CCC(C)(C)c2cc(-c3cc4ccc(C(=O)O)cc4o3)ccc21 [Compound VI, 2(5,6,7,8-tetrahydro-5,5,8,8-tetramethyl-2-naphthyl)-6 benzo(b)furan carboxylic acid] | – | 770 nM | – | 200 nM | 670 nM | –

From patent US5196577A, “Compound marked with tritium, its preparation and its use in particular in the determination of the affinity of retinoids for their nuclear receptors and their cytosolic binding protein” (Centre International de Recherches Dermatologiques, priority 1988, dated 1993)
